Results as given in article PMC9144902, “Metal(II) Complexes of the Fluoroquinolone Fleroxacin: Synthesis, Characterization and Biological Profile” (Pharmaceutics, 2022).

What was measured:
[1] = molecular target: T1, bovine serum albumin (BSA) (Bos taurus, UniProt P02769); assay: Albumin binding by tryptophan fluorescence emission quenching; conditions: for K(BSA), BSA-binding constant / kq(BSA), BSA-quenching constant: BSA 3 μM; for K(BSA), BSA-binding constant: buffer pH 7.0, Scatchard equation; for kq(BSA), BSA-quenching constant: buffer pH 7.0, λexc 295 nm, Stern–Volmer, τ0 = 10^–8 s; for BSA fluorescence, % of the initial fluorescence intensity (I/Io): λem,max = 342 nm, final value of titration (Figure S11)
T1 construct: purchased
T1 sequence (P02769 25-607): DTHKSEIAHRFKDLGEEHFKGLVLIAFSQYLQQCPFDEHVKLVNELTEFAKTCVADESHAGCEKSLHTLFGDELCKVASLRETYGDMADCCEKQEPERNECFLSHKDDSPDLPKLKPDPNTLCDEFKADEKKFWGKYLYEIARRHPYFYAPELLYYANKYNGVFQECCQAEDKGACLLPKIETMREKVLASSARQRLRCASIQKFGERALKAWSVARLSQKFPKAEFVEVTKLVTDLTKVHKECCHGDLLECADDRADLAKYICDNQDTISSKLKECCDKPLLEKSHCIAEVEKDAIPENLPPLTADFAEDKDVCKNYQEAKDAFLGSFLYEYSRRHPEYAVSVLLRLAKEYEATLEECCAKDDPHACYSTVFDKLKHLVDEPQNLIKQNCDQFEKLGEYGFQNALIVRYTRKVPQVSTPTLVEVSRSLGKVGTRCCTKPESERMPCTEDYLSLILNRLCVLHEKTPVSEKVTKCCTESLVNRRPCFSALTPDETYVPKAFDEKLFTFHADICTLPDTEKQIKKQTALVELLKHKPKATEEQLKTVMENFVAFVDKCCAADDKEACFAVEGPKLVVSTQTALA
In short: (§1)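 Compound binding to serum albumin monitored by quenching of albumin tryptophan fluorescence emission. Quenching constants (kq) derived from Stern–Volmer equation; binding constants (K) from Scatchard equation.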

[2] = molecular target: T2, human serum albumin (HSA) (Homo sapiens, UniProt P02768); assay: as above; conditions: for K(HSA), HSA-binding constant / kq(HSA), HSA-quenching constant: HSA 3 μM; for K(HSA), HSA-binding constant: buffer pH 7.0, Scatchard equation; for kq(HSA), HSA-quenching constant: buffer pH 7.0, λexc 295 nm, Stern–Volmer, τ0 = 10^–8 s; for HSA fluorescence, % of the initial fluorescence intensity (I/Io): λem,max = 351 nm, final value of titration (Figure S10)
T2 construct: purchased
T2 sequence (P02768 25-609): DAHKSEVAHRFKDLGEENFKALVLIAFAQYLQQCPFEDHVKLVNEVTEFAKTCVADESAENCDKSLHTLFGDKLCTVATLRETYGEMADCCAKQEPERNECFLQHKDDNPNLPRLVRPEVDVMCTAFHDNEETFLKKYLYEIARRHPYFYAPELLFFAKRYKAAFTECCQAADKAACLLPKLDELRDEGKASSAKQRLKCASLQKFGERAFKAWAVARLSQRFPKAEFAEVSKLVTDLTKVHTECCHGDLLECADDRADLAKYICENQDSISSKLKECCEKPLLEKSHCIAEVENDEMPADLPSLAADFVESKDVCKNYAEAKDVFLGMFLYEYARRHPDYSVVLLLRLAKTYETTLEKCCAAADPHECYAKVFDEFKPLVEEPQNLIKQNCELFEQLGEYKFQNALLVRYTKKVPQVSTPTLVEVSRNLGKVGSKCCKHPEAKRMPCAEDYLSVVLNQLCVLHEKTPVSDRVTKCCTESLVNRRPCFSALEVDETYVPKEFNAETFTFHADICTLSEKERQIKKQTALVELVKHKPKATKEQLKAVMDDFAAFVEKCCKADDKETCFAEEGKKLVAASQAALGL
In short: as §1

CT DNA = assay: Study of the DNA-interaction by cyclic voltammetry; assay type: binding, calf; conditions: for Epa(f), anodic potential / Epc(f), cathodic potential / Epa(b), anodic potential / Epc(b), cathodic potential: M(II)/M(I), 1:2 DMSO/buffer; for Epa(f), anodic potential / Epc(f), cathodic potential: absence of CT DNA; for Epa(b), anodic potential / Epc(b), cathodic potential: presence of CT DNA; for Kr/Kox, ratio of equilibrium DNA-binding constants (reduced/oxidized form): eq. S6
Procedure: Cyclic voltammetry was used to study the interaction of the complexes with CT DNA. An intercalative interaction will induce a positive shift for the electrochemical potential(s) of metal oxidation/reduction, whereas, in the case of electrostatic interaction, a negative shift in the potential(s) may occur. The cyclic voltammograms of the complexes in a 1:2 DMSO:buffer solution (0.33 mM) were recorded in the absence and presence of the CT DNA solution (Figure S13). The predominant electrochemical feature for all complexes is a positive shift in the potential in the presence of CT DNA (ΔEpc/a = (–30)–(+127) mV). Consequently, the intercalative nature of the interaction of the complexes with DNA can be inferred from the presented data.
In order to evaluate further the redox behavior of the complexes, the corresponding equilibrium constants were calculated by determining the ratio Kr/Kox in accordance to Equation (S6), where Kox and Kr are the DNA-binding constants for the oxidized and reduced form, respectively, of the metal ions. For all complexes, the Kr/Kox ratio is close to or above 1 (Table 7), showing the selective binding of DNA to the […] form of the complexes. […]
S3.3 Study of the DNA –interaction by cyclic vol ta mmetry
Cyclic voltammetr y can be also used in order to calculate the corresponding equilibrium constant for the redox process. The ratio of the DNA–binding constants for the reduced (K r) and oxidized forms (Kox) of t he complex es (Kr/Kox) w as calculat ed according t o eq. S6:
Δ = = 0.059 × lo gEE E K oxoo o (eq. S6) […]
where Eo and Eo are the formal potentials of M(II)/M(I) redox couple in the fully bound and […]
free complexes, respectivel y. Kox and Kr are the binding constants for the binding of the oxidized and reduced species to DNA, respectivel y [S8] . […]

Row | Compound | K(BSA), BSA-binding constant [1] | kq(BSA), BSA-quenching constant [1] | BSA fluorescence, % of the initial fluorescence intensity (I/Io) [1] | K(HSA), HSA-binding constant [2] | kq(HSA), HSA-quenching constant [2] | HSA fluorescence, % of the initial fluorescence intensity (I/Io) [2] | Epa(f), anodic potential (CT DNA) | Epc(f), cathodic potential (CT DNA) | Epa(b), anodic potential (CT DNA) | Epc(b), cathodic potential (CT DNA) | Kr/Kox, ratio of equilibrium DNA-binding constants (reduced/oxidized form) (CT DNA)
1 | CN1CCN(c2c(F)cc3c(=O)c(C(=O)[O-])cn(CCF)c3c2F)CC1.CN1CCN(c2c(F)cc3c(=O)c(C(=O)[O-])cn(CCF)c3c2F)CC1.[Co+2].c1ccc(-c2ccccn2)nc1 [complex 15, [Co(flrx)2(bipy)]] | 2.84(±0.11) × 10^5 M^−1 | 5.12(±0.17) × 10^13 M^−1s^−1 | 9.2% | 8.13(±0.25)×10^4 M^−1 | 1.56(±0.05) × 10^13 M^−1s^−1 | 26.1% | −533 mV | −701 mV | −541 mV | −695 mV | 0.98
2 | CN1CCN(c2c(F)cc3c(=O)c(C(=O)[O-])cn(CCF)c3c2F)CC1.CN1CCN(c2c(F)cc3c(=O)c(C(=O)[O-])cn(CCF)c3c2F)CC1.[Co+2].c1ccc(Nc2ccccn2)nc1 [complex 16, [Co(flrx)2(bipyam)]] | 1.44(±0.04) × 10^5 M^−1 | 1.98(±0.05) × 10^13 M^−1s^−1 | 22.2% | 9.61(±0.36) × 10^4 M^−1 | 9.35(±0.22) × 10^12 M^−1s^−1 | 36.1% | −466 mV | −729 mV | −445 mV | −741 mV | 1.08
3 | CN1CCN(c2c(F)cc3c(=O)c(C(=O)[O-])cn(CCF)c3c2F)CC1.CN1CCN(c2c(F)cc3c(=O)c(C(=O)[O-])cn(CCF)c3c2F)CC1.[Co+2].c1cnc2c(c1)ccc1cccnc12 [complex 17, [Co(flrx)2(phen)]] | 1.44(±0.03) × 10^5 M^−1 | 1.50(±0.03) × 10^13 M^−1s^−1 | 26.3% | 5.18(±0.32) × 10^4 M^−1 | 6.49(±0.21) × 10^12 M^−1s^−1 | 44.5% | −523 mV | −695 mV | −518 mV | −689 mV | 1.10
4 | CN1CCN(c2c(F)cc3c(=O)c(C(=O)[O-])cn(CCF)c3c2F)CC1.CN1CCN(c2c(F)cc3c(=O)c(C(=O)[O-])cn(CCF)c3c2F)CC1.[Ni+2].c1ccc(Nc2ccccn2)nc1 [complex 18, [Ni(flrx)2(bipyam)]] | 4.77(±0.15) × 10^4 M^−1 | 1.56(±0.07) × 10^13 M^−1s^−1 | 25.2% | 7.13(±0.17) × 10^4 M^−1 | 6.94(±0.10) × 10^12 M^−1s^−1 | 44.5% | −523 mV | −695 mV | −512 mV | −689 mV | 1.15
5 | CN1CCN(c2c(F)cc3c(=O)c(C(=O)[O-])cn(CCF)c3c2F)CC1.CN1CCN(c2c(F)cc3c(=O)c(C(=O)[O-])cn(CCF)c3c2F)CC1.[Ni+2].c1cnc2c(c1)ccc1cccnc12 [complex 19, [Ni(flrx)2(phen)]] | 8.01(±0.28) × 10^4 M^−1 | 1.39(±0.04) × 10^13 M^−1s^−1 | 25.6% | 6.65(±0.15) × 10^4 M^−1 | 6.67(±0.18) × 10^12 M^−1s^−1 | 43.9% | −489 mV | −706 mV | −460 mV | −718 mV | 1.15
